According to PubChem BioAssay AID1963420 (Molecular Pharmacology Branch, DTP, NCI, 2024):

System: 494315-158-R-J1-PDC complex spheroid growth, percent test/control
Assay: Anticancer human tumor 494315-158-R-J1-PDC patient-derived soft tissue sarcoma cell line growth inhibition [Asc]
Conditions: for IC50: curve of first compound; for viability, T/C: stronger effect = lower value
Protocol: Multicellular complex tumor spheroid response to apoptosis pathway targeting inhibitors Alrizomadlin, Pelcitoclax, and Dasminapant in combination with a variety of drugs and investigational agents in selected tumor cell lines
The MDM2 inhibitor alrizomadlin, the Bcl-2/Bcl-xL inhibitor pelcitoclax, and the IAPs inhibitor dasminapant were evaluated both individually and in combination with standard of care and investigational anticancer small molecules within a complex spheroid model of solid tumors. . Complex spheroids include a stromal component modeled by human endothelial cells (HUVEC) and fibroblasts modeled by human mesenchymal stem cells (MSCs). The concentration ranges selected for each drug and investigational agent were based upon clinically achievable concentrations if the clinical Cmax of the agent was known.
Compounds. The drugs and investigational agents: alrizomadlin (APG-115; NSC831270), pelcitoclax (APG-1252; NSC835773), dasminapant (APG-1387;NSC834197), TAK-243 (NSC785004), copanlisib (NSC809693), olaparib (NSC753686), talazoparib (NSC767125), cobimetinib (NSC 768068), eltanexor (KPT-8602, NSC 794443), abemaciclib (NSC 768073), sotorasib (NSC818433), adagrasib (NSC 831453), MRTX-1133 (NSC 836407), Iadademestat (ORY1001, NSC 806812), and RMC-4630 (NSC839698), were obtained from the NCI Developmental Therapeutics Program Chemical Repository. The FDA-approved anticancer drug set is available from the Developmental Therapeutics Program at https://dtp.cancer.gov/organization/dscb/obtaining/available plates.htm. […] The stock solutions were prepared in dimethyl sulfoxide (DMSO, Sigma-Aldrich, St. Louis, MO, cat. D2650) at 800-fold the tested concentration and stored at -70 degrees C prior to their use. All drugs and investigational agents were tested over a range starting from a high concentration at or near the clinical Cmax and decreasing in half-log increments. If the clinical Cmax for an agent had not been determined, the highest concentration tested was 10 microM.
The patient-derived cancer (PDC) cell lines include five colon adenocarcinomas: 186277-243-T-J2-PDC, 616215-338-R-J1-PDC, 439559-082-T-J2-PDC, 463943-066-T-J2-PDC, and 519858-162-T-J1-PDC; three pancreatic carcinomas: 323965-272-R-J2-PDC, 521955-158-R6-J3-PDC, and 521955-158-R2-J5-PDC; two uterine sarcomas: 327498-152-R-J2-PDC and 993429-296-R-J1-PDC; two rhabdomyosarcomas: 755483-174-R-J1-PDC and 772245-204-R-J1-PDC; two soft tissue sarcomas: 126254-015-R-J1-PDC and 494315-158-R-J1-PDC; two malignant fibrous histiocytomas: 317291-083-R-J1-PDC and 596521-263-R-J1-PDC; two breast carcinomas: 171881-019-R-J1-PDC and 885512-296-R-J2-PDC; and one ovarian carcinoma: 6556581-035-R-J-PDC were obtained from the NCI PDMR, (https://pdmr.cancer.gov). The established cell lines HSSY-2 synovial sarcoma (RRID:CVCL 8719), SYO-1 synovial sarcoma (RRID:CVCL_7146), MPNST malignant peripheral neural sheath tumor were obtained from the Sloan Kettering Institute. The following established cell lines were purchased from the American Type Culture Collection (ATCC, Manassas, VA), Sor the received from the NCI repository:, PANC-1 pancreatic carcinoma (CRL-1469, RRID:CVCL_0480), OVCAR-5 ovarian carcinoma (RRID:CVCL_1628), OVCAR-8 ovarian carcinoma (RRID:CVCL_1629), , MCF-7 breast carcinoma (CRL-12584, RRID:CVCL_0031), MDA-MB-231 breast carcinoma (CRL-12532, RRID:CVCL_0062), NCI-H1876 small cell lung carcinoma (CRL-5902, RRID:CVCL_1503), NCI-H510A small cell lung carcinoma (HTB-184, RRID:CVCL_1565), NCI-H1417 (CRL-5869, RRID:CVCL_1469), and NCI-H196 small cell lung carcinoma (CRL-5823, RRID:CVCL_1509). Dr. Peter Houghton (Greehey Children's Cancer Research Institute, University of Texas Health Science Center, San Antonio, TX) provided Rh-18 rhabdomyosarcoma (RRID:CVCL_1659). Pooled donor human umbilical vein endothelial cells (HUVEC, Lonza, cat. CC-2519) and human mesenchymal stem cells (hMSC, Lonza, cat. PT-2501) were purchased from Lonza (Walkersville, MD).
Cell Culture. […]

[1] = second compound 0.03 µM, first compound 0.00316 µM
[2] = second compound 0.03 µM, first compound 0.01 µM
[3] = second compound 0.03 µM, first compound 0.0316 µM
[4] = second compound 0.03 µM, first compound 0.1 µM
[5] = second compound 0.03 µM, first compound 0.316 µM
[6] = second compound 0.03 µM, first compound 1 µM
[7] = second compound 0.0949 µM, first compound 0.00316 µM
[8] = second compound 0.0949 µM, first compound 0.01 µM
[9] = second compound 0.0949 µM, first compound 0.0316 µM
[10] = second compound 0.0949 µM, first compound 0.1 µM
[11] = second compound 0.0949 µM, first compound 0.316 µM
[12] = second compound 0.0949 µM, first compound 1 µM
[13] = second compound 0.3 µM, first compound 0.00316 µM
[14] = second compound 0.3 µM, first compound 0.01 µM
[15] = second compound 0.3 µM, first compound 0.0316 µM
[16] = second compound 0.3 µM, first compound 0.1 µM
[17] = second compound 0.3 µM, first compound 0.316 µM
[18] = second compound 0.3 µM, first compound 1 µM
[19] = second compound 0.949 µM, first compound 0.00316 µM
[20] = second compound 0.949 µM, first compound 0.01 µM
[21] = second compound 0.949 µM, first compound 0.0316 µM
[22] = second compound 0.949 µM, first compound 0.1 µM
[23] = second compound 0.949 µM, first compound 0.316 µM
[24] = second compound 0.949 µM, first compound 1 µM
[25] = second compound 3 µM, first compound 0.00316 µM
[26] = second compound 3 µM, first compound 0.01 µM
[27] = second compound 3 µM, first compound 0.0316 µM
[28] = second compound 3 µM, first compound 0.1 µM
[29] = second compound 3 µM, first compound 0.316 µM
[30] = second compound 3 µM, first compound 1 µM
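Also: compound exposure lasted seven days after spheroids formed for three days.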

Row | SMILES | IC50 (second compound 0.03 µM) [nM] | IC50 (second compound 0.0949 µM) [nM] | IC50 (second compound 0.3 µM) [nM] | IC50 (second compound 0.949 µM) [nM] | IC50 (second compound 3 µM) [nM] | viability, T/C [1] [%] | viability, T/C [2] [%] | viability, T/C [3] [%] | viability, T/C [4] [%] | viability, T/C [5] [%] | viability, T/C [6] [%] | viability, T/C [7] [%] | viability, T/C [8] [%] | viability, T/C [9] [%] | viability, T/C [10] [%] | viability, T/C [11] [%] | viability, T/C [12] [%] | viability, T/C [13] [%] | viability, T/C [14] [%] | viability, T/C [15] [%] | other results
1 | CCN1CCN(Cc2ccc(Nc3ncc(F)c(-c4cc(F)c5nc(C)n(C(C)C)c5c4)n3)nc2)CC1 + CCN1C(C(=O)NC23CCC(C(=O)O)(CC2)CC3)C(c2cccc(Cl)c2F)C2(C(=O)Nc3cc(Cl)ccc32)C12CCCCC2 | > 1000 | > 1000 | > 1000 | > 1000 | > 1000 | 109 | 108 | 94.2 | 112 | 105 | 97.2 | 105 | 112 | 121 | 121 | 106 | 103 | 107 | 104 | 114 | viability, T/C [16]: 106%; viability, T/C [17]: 112%; viability, T/C [18]: 97.2%; viability, T/C [19]: 111%; viability, T/C [20]: 117%; viability, T/C [21]: 100%; viability, T/C [22]: 99.2%; viability, T/C [23]: 97.1%; viability, T/C [24]: 88.3%; viability, T/C [25]: 110%; viability, T/C [26]: 112%; viability, T/C [27]: 89.1%; viability, T/C [28]: 114%; viability, T/C [29]: 100%; viability, T/C [30]: 85%
2 | O=C(c1ccc(F)c(F)c1Nc1ccc(I)cc1F)N1CC(O)([C@@H]2CCCCN2)C1 + CCN1C(C(=O)NC23CCC(C(=O)O)(CC2)CC3)C(c2cccc(Cl)c2F)C2(C(=O)Nc3cc(Cl)ccc32)C12CCCCC2 | > 1000 | > 1000 | > 1000 | > 1000 | 795 | 110 | 116 | 121 | 115 | 95.7 | 61.7 | 98 | 90.5 | 110 | 99.2 | 96.6 | 58.4 | 98.9 | 114 | 120 | viability, T/C [16]: 111%; viability, T/C [17]: 87.8%; viability, T/C [18]: 51.2%; viability, T/C [19]: 88.4%; viability, T/C [20]: 93.7%; viability, T/C [21]: 137%; viability, T/C [22]: 127%; viability, T/C [23]: 97.7%; viability, T/C [24]: 61.3%; viability, T/C [25]: 98.2%; viability, T/C [26]: 102%; viability, T/C [27]: 101%; viability, T/C [28]: 112%; viability, T/C [29]: 84.5%; viability, T/C [30]: 41.4%
